The record followed here is ChEMBL document CHEMBL5154747, “Discovery of new carbonic anhydrase IX inhibitors as anticancer agents by toning the hydrophobic and hydrophilic rims of the active site to encounter the dual-tail approach” (Eur J Med Chem, 2022).

What all share (type): functional
Common to all, as to conditions: read-out: GI

One test has as its system CCRF-CEM. The test can be described thus: Anticancer activity against human CCRF-CEM cells assessed as cell growth inhibition at 10 uM incubated for 48 hrs by SRB assay relative to control. For orientation: The SRB assay estimates cell density from bound dye.
The next test concerns K562. The test can be described thus: Anticancer activity against human K562 cells assessed as cell growth inhibition at 10 uM incubated for 48 hrs by SRB assay relative to control.
The next test has as its system HOP-92. The test can be described thus: Anticancer activity against human HOP-92 cells assessed as cell growth inhibition at 10 uM incubated for 48 hrs by SRB assay relative to control.
A further test deals with NCI-H23. The test can be described thus: Anticancer activity against human NCI-H23 cells assessed as cell growth inhibition at 10 uM incubated for 48 hrs by SRB assay relative to control.
In the next test the test system is NCI-H322M. The test can be described thus: Anticancer activity against human NCI-H322M cells assessed as cell growth inhibition at 10 uM incubated for 48 hrs by SRB assay relative to control.
The test system of a further test is NCI-H522. The test can be described thus: Anticancer activity against human NCI-H522 cells assessed as cell growth inhibition at 10 uM incubated for 48 hrs by SRB assay relative to control.
The subject of another test is HCT-15. The test can be described thus: Anticancer activity against human HCT-15 cells assessed as cell growth inhibition at 10 uM incubated for 48 hrs by SRB assay relative to control.
The test system of a further test is HT-29. The test can be described thus: Anticancer activity against human HT-29 cells assessed as cell growth inhibition at 10 uM incubated for 48 hrs by SRB assay relative to control.
The test system of another test is SW-620. The test can be described thus: Anticancer activity against human SW-620 cells assessed as cell growth inhibition at 10 uM incubated for 48 hrs by SRB assay relative to control.
Another test deals with SF-295. The test can be described thus: Anticancer activity against human SF-295 cells assessed as cell growth inhibition at 10 uM incubated for 48 hrs by SRB assay relative to control.
Another test deals with SF-539. The test can be described thus: Anticancer activity against human SF-539 cells assessed as cell growth inhibition at 10 uM incubated for 48 hrs by SRB assay relative to control.
A further test concerns SNB-75. The test can be described thus: Anticancer activity against human SNB-75 cells assessed as cell growth inhibition at 10 uM incubated for 48 hrs by SRB assay relative to control.
The subject of another test is LOX IMVI. The test can be described thus: Anticancer activity against human LOX IMVI cells assessed as cell growth inhibition at 10 uM incubated for 48 hrs by SRB assay relative to control.
A further test has as its system SK-MEL-28. The test can be described thus: Anticancer activity against human SK-MEL-28 cells assessed as cell growth inhibition at 10 uM incubated for 48 hrs by SRB assay relative to control.
Another test concerns SK-OV-3. The test can be described thus: Anticancer activity against human SK-OV-3 cells assessed as cell growth inhibition at 10 uM incubated for 48 hrs by SRB assay relative to control.
Another test deals with A498. The test can be described thus: Anticancer activity against human A498 cells assessed as cell growth inhibition at 10 uM incubated for 48 hrs by SRB assay relative to control.
For a further test, the system named is CAKI-1. The test can be described thus: Anticancer activity against human CAKI-1 cells assessed as cell growth inhibition at 10 uM incubated for 48 hrs by SRB assay relative to control.
The test system of another test is RXF 393. The test can be described thus: Anticancer activity against human RXF 393 cells assessed as cell growth inhibition at 10 uM incubated for 48 hrs by SRB assay relative to control.
Another test deals with DU-145. The test can be described thus: Anticancer activity against human DU-145 cells assessed as cell growth inhibition at 10 uM incubated for 48 hrs by SRB assay relative to control.
Another test relates to OVCAR-4. The test can be described thus: Anticancer activity against human OVCAR-4 cells assessed as cell growth inhibition at 10 uM incubated for 48 hrs by SRB assay relative to control.

Bounds are passed on as bounds.

`CN(C)c1ccc(/C=N/Nc2nc(Nc3ccccc3)nc(Nc3ccc(S(N)(=O)=O)cc3)n2)cc1`: the inhibition of growth at 10 µM with CCRF-CEM was 53%; in the test with K562, 39%; with HOP-92 it was below 10%; in the test on NCI-H23, 13%; in the test with NCI-H322M it was 15%; with NCI-H522, 20%. The inhibition of growth at 10 µM with HCT-15 was 20%; in the test with HT-29, 43%; in the test on SW-620, 17%; in the test with SF-295, 53%; in the test with SF-539, 59%; in the test with SNB-75, 12%. Further, the inhibition of growth at 10 µM is 31% in the test with LOX IMVI; 10% in the test with SK-MEL-28; below 10% in the test on SK-OV-3; 14% in the test with A498; below 10% in the test on CAKI-1; 35% in the test on RXF 393. The inhibition of growth at 10 µM with DU-145 is 26%; in the test with OVCAR-4, below 10%.
For the molecule `NS(=O)(=O)c1ccc(Nc2nc(N/N=C/CCc3ccccc3)nc(Nc3ccccc3)n2)cc1`, the inhibition of growth at 10 µM was below 10% in the test with CCRF-CEM; below 10% with K562; below 10% with HOP-92; below 10% in the test with NCI-H23; below 10% in the test with NCI-H322M; 12% in the test on NCI-H522. Also, the inhibition of growth at 10 µM with HCT-15, in the test on HT-29, in the test with SW-620, in the test on SF-295, with SF-539 and in the test on SNB-75 was below 10% throughout. Besides, the inhibition of growth at 10 µM in the test on LOX IMVI, in the test with SK-MEL-28, in the test on SK-OV-3, in the test on A498, with CAKI-1 and in the test with RXF 393 was below 10% throughout. For the same molecule, the inhibition of growth at 10 µM with DU-145 and in the test with OVCAR-4 was below 10% throughout.
Turning to `NS(=O)(=O)c1ccc(Nc2nc(N/N=C/C=C/c3ccccc3)nc(Nc3ccccc3)n2)cc1`, the inhibition of growth at 10 µM with CCRF-CEM stood at 75%; in the test on K562, 72%; in the test with HOP-92, 16%; with NCI-H23 it was 59%; in the test on NCI-H322M it was 43%; in the test with NCI-H522, 33%. In addition, the inhibition of growth at 10 µM came out at 55% in the test with HCT-15; 65% in the test on HT-29; 48% with SW-620; 55% in the test on SF-295; 60% in the test with SF-539; 57% in the test with SNB-75. Besides, the inhibition of growth at 10 µM with LOX IMVI is 72%; in the test on SK-MEL-28 it was 39%; with SK-OV-3, 21%; in the test with A498 it was 59%; in the test with CAKI-1, 53%; in the test on RXF 393, 108%. In addition, the inhibition of growth at 10 µM with DU-145 came out at 57%; in the test on OVCAR-4, 50%.
